# Values quoted from earlier work, collected in patent US7291720B2, “Use of sublethal concentrations of anti-invasin compounds to therapeutically or prophylactically treat fungal infections” (priority 2000, dated 2007).
# What was measured:
# [1] = system: susceptible isolate of C. albicans; conditions: in vitro
# [2] = about half necessitated discontinuation of therapy
smiles,measurement,setting,value
OC(Cn1cncn1)(Cn1cncn1)c1ccc(F)cc1F [fluconazole],concentration that reduces hyphal formation,[1],0.1 µg/mL
same,"patients with adverse reactions, possibly related to the treatment",[2],over 5%
